Assay results taken from patent publication US10167262B2, “Herbicidal substituted 3-arylpyrazoles” (FMC CORPORATION, priority 2014, dated 2019).

How the values were obtained:
Type in all cases: in vivo
[1] = tested on: oilseed rape (Brassica napus); assay: Test C pre-/postemergence greenhouse test, plant response rating 0-100; settings: Preemergence
In short: (§1)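 Pre-emergence soil and post-emergence foliar sprays were applied simultaneously to seeded loam–sand pots and to 1–4-leaf plants in peat medium; greenhouse holding lasted 13–15 days, then plants were scored visually from 0 (no effect) to 100 (complete control).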

[2] = tested on: barnyardgrass (Echinochloa crus-galli); assay: as above; settings: Preemergence
In short: as §1

[3] = tested on: waterhemp (common waterhemp, Amaranthus rudis); assay: as above; settings: Preemergence
In short: as §1

[4] = tested on: goosegrass (Eleusine indica); assay: Test C postemergence greenhouse test, plant response rating 0-100; settings: for Plant response rating, Goosegrass: scale 0 to 100
In short: (§2)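 Postemergence spray onto 1–4-leaf potted seedlings, greenhouse incubation 13–15 days. Visual percent-control rating (0–100) against untreated plants.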

[5] = tested on: cocklebur (common cocklebur, Xanthium strumarium); assay: as above; settings: for Plant response rating, Cocklebur: scale 0 to 100
In short: as §2

[6] = tested on: deadnettle (henbit deadnettle, Lamium amplexicaule); assay: as above; settings: for Plant response rating, Deadnettle: scale 0 to 100
In short: as §2

[7] = tested on: woolly cupgrass (Eriochloa villosa); assay: as above; settings: for Plant response rating, Cupgrass, Woolly: scale 0 to 100
In short: as §2

[8] = tested on: canarygrass (Phalaris minor); assay: as above; settings: for Plant response rating, Canarygrass: scale 0 to 100
In short: as §2

soybean (Glycine max) = assay: Test E pre-/postemergence greenhouse test, plant response rating 0-100; settings: scale 0 to 100; for plant injury at 31 g/ha / plant injury at 62 g/ha / plant injury at 125 g/ha / plant injury at 250 g/ha / plant injury at 500 g/ha: Glycine max, post-emergence, Postemergence; for plant injury at 31 g/ha: 31 g ai/ha; for Soybean plant response rating: Preemergence
In short: (§3)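 Pre- and postemergence sprays, vehicle non-phytotoxic solvent containing surfactant; postemergence plants 2–18 cm tall at the 1–4-leaf stage. Scored against controls after 14 to 21 days in a greenhouse, 0 being no effect and 100 complete control.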

[9] = tested on: barnyardgrass (Echinochloa crus-galli); assay: as above; settings: scale 0 to 100; for pest or weed control at 31 g/ha: 31 g ai/ha; for Barnyardgrass plant response rating: Preemergence
In short: as §3

[10] = tested on: sandbur (southern sandbur, Cenchrus echinatus); assay: as above; settings: scale 0 to 100; for pest or weed control at 31 g/ha / pest or weed control at 62 g/ha / pest or weed control at 125 g/ha / pest or weed control at 250 g/ha / pest or weed control at 500 g/ha: Cenchrus echinatus, post-emergence, Postemergence; for pest or weed control at 31 g/ha: 31 g ai/ha; for Sandbur plant response rating: Preemergence
In short: as §3

[11] = Echinochloa crus-galli, post-emergence, Postemergence
[12] = Echinochloa crus-galli, post-emergence, Postemergence, 62 g ai/ha
[13] = Echinochloa crus-galli, post-emergence, Postemergence, 125 g ai/ha
[14] = Echinochloa crus-galli, post-emergence, Postemergence, 250 g ai/ha
[15] = Echinochloa crus-galli, post-emergence, Postemergence, 500 g ai/ha

Structure (SMILES): Clc1cc(Cl)cc(-c2n[nH]cc2C(=NN2CCCC2)c2ccccc2)c1 [Compound 30, N-[[3-(3,5-dichlorophenyl)-1H-pyrazol-4-yl]phenylmethylene]-1-pyrrolidinamine]
- Plant response rating, Oilseed Rape ([1]; 62 g ai/ha): 50
- Plant response rating, Oilseed Rape ([1]; 125 g ai/ha): 80
- Plant response rating, Oilseed Rape ([1]; 250 g ai/ha): 85
- Plant response rating, Oilseed Rape ([1]; 500 g ai/ha): 100
- Plant response rating, Barnyardgrass ([2]; 62 g ai/ha): 0
- Plant response rating, Barnyardgrass ([2]; 125 g ai/ha): 0
- Plant response rating, Barnyardgrass ([2]; 250 g ai/ha): 0
- Plant response rating, Barnyardgrass ([2]; 500 g ai/ha): 0
- Plant response rating, Waterhemp ([3]; 62 g ai/ha): 100
- Plant response rating, Waterhemp ([3]; 125 g ai/ha): 100
- Plant response rating, Waterhemp ([3]; 250 g ai/ha): 100
- Plant response rating, Waterhemp ([3]; 500 g ai/ha): 100
- Plant response rating (0 to 100), Goosegrass ([4]; 31 g ai/ha): 0
- Plant response rating (0 to 100), Goosegrass ([4]; 62 g ai/ha): 0
- Plant response rating (0 to 100), Goosegrass ([4]; 125 g ai/ha): 0
- Plant response rating, Goosegrass ([4]; 250 g ai/ha): 0
- Plant response rating (0 to 100), Cocklebur ([5]; 31 g ai/ha): 10
- Plant response rating (0 to 100), Deadnettle ([6]; 31 g ai/ha): 0
- Plant response rating (0 to 100), Deadnettle ([6]; 62 g ai/ha): 0
- Plant response rating (0 to 100), Deadnettle ([6]; 125 g ai/ha): 0
- Plant response rating, Deadnettle ([6]; 250 g ai/ha): 0
- Plant response rating (0 to 100), Cupgrass, Woolly ([7]; 31 g ai/ha): 0
- Plant response rating (0 to 100), Cupgrass, Woolly ([7]; 62 g ai/ha): 0
- Plant response rating (0 to 100), Cupgrass, Woolly ([7]; 125 g ai/ha): 0
- Plant response rating, Cupgrass, Woolly ([7]; 250 g ai/ha): 0
- Plant response rating (0 to 100), Canarygrass ([8]; 31 g ai/ha): 0
- Plant response rating (0 to 100), Canarygrass ([8]; 62 g ai/ha): 0
- Plant response rating (0 to 100), Canarygrass ([8]; 125 g ai/ha): 0
- Plant response rating, Canarygrass ([8]; 250 g ai/ha): 0
- plant injury at 31 g/ha (soybean (Glycine max)): 0%
- plant injury at 62 g/ha (soybean (Glycine max); 62 g ai/ha): 0%
- plant injury at 125 g/ha (soybean (Glycine max); 125 g ai/ha): 0%
- plant injury at 250 g/ha (soybean (Glycine max); 250 g ai/ha): 0%
- pest or weed control at 16 g/ha ([9]; Echinochloa crus-galli, post-emergence, Postemergence, 16 g ai/ha): 0%
- pest or weed control at 31 g/ha [9, 11]: 0%
- pest or weed control at 62 g/ha [9, 12]: 0%
- pest or weed control at 125 g/ha [9, 13]: 0%
- pest or weed control at 250 g/ha [9, 14]: 0%
- pest or weed control at 31 g/ha [10]: 0%
- pest or weed control at 62 g/ha ([10]; 62 g ai/ha): 0%
- pest or weed control at 125 g/ha ([10]; 125 g ai/ha): 0%
- pest or weed control at 250 g/ha ([10]; 250 g ai/ha): 0%

Structure (SMILES): C#CCn1cc(C(=O)c2ccccc2)c(-c2cc(Cl)cc(Cl)c2)n1 [Compound 39, [3-(3,5-dichlorophenyl)-1-(2-propyn-1-yl)-1H-pyrazol-4-yl]phenylmethanone]
- Plant response rating, Oilseed Rape ([1]; 62 g ai/ha): 0
- Plant response rating, Oilseed Rape ([1]; 125 g ai/ha): 30
- Plant response rating, Oilseed Rape ([1]; 250 g ai/ha): 50
- Plant response rating, Oilseed Rape ([1]; 500 g ai/ha): 80
- Plant response rating, Barnyardgrass ([2]; 62 g ai/ha): 0
- Plant response rating, Barnyardgrass ([2]; 125 g ai/ha): 0
- Plant response rating, Barnyardgrass ([2]; 250 g ai/ha): 0
- Plant response rating, Barnyardgrass ([2]; 500 g ai/ha): 0
- Plant response rating, Waterhemp ([3]; 62 g ai/ha): 75
- Plant response rating, Waterhemp ([3]; 125 g ai/ha): 100
- Plant response rating, Waterhemp ([3]; 250 g ai/ha): 100
- Plant response rating, Waterhemp ([3]; 500 g ai/ha): 100
- Plant response rating (0 to 100), Goosegrass ([4]; 62 g ai/ha): 0
- Plant response rating (0 to 100), Goosegrass ([4]; 125 g ai/ha): 0
- Plant response rating, Goosegrass ([4]; 250 g ai/ha): 0
- Plant response rating, Goosegrass ([4]; 500 g ai/ha): 0
- Plant response rating (0 to 100), Cocklebur ([5]; 62 g ai/ha): 15
- Plant response rating (0 to 100), Cocklebur ([5]; 125 g ai/ha): 55
- Plant response rating, Cocklebur ([5]; 250 g ai/ha): 55
- Plant response rating, Cocklebur ([5]; 500 g ai/ha): 55
- Plant response rating (0 to 100), Deadnettle ([6]; 62 g ai/ha): 0
- Plant response rating (0 to 100), Deadnettle ([6]; 125 g ai/ha): 0
- Plant response rating, Deadnettle ([6]; 250 g ai/ha): 0
- Plant response rating, Deadnettle ([6]; 500 g ai/ha): 0
- Plant response rating (0 to 100), Cupgrass, Woolly ([7]; 62 g ai/ha): 0
- Plant response rating (0 to 100), Cupgrass, Woolly ([7]; 125 g ai/ha): 0
- Plant response rating, Cupgrass, Woolly ([7]; 250 g ai/ha): 0
- Plant response rating, Cupgrass, Woolly ([7]; 500 g ai/ha): 0
- Plant response rating (0 to 100), Canarygrass ([8]; 62 g ai/ha): 0
- Plant response rating (0 to 100), Canarygrass ([8]; 125 g ai/ha): 0
- Plant response rating, Canarygrass ([8]; 250 g ai/ha): 0
- Plant response rating, Canarygrass ([8]; 500 g ai/ha): 0
- plant injury at 31 g/ha (soybean (Glycine max)): 0%
- plant injury at 62 g/ha (soybean (Glycine max); 62 g ai/ha): 0%
- plant injury at 125 g/ha (soybean (Glycine max); 125 g ai/ha): 0%
- plant injury at 250 g/ha (soybean (Glycine max); 250 g ai/ha): 10%
- plant injury at 500 g/ha (soybean (Glycine max); 500 g ai/ha): 20%
- Soybean plant response rating (soybean (Glycine max); 62 g ai/ha): 0
- Soybean plant response rating (soybean (Glycine max); 125 g ai/ha): 0
- Soybean plant response rating (soybean (Glycine max); 250 g ai/ha): 0
- Soybean plant response rating (soybean (Glycine max); 500 g ai/ha): 0
- pest or weed control at 31 g/ha [9, 11]: 0%
- pest or weed control at 62 g/ha [9, 12]: 0%
- pest or weed control at 125 g/ha [9, 13]: 0%
- pest or weed control at 250 g/ha [9, 14]: 0%
- pest or weed control at 500 g/ha [9, 15]: 10%
- Barnyardgrass plant response rating ([9]; 62 g ai/ha): 0
- Barnyardgrass plant response rating ([9]; 125 g ai/ha): 0
- Barnyardgrass plant response rating ([9]; 250 g ai/ha): 0
- Barnyardgrass plant response rating ([9]; 500 g ai/ha): 0
- pest or weed control at 31 g/ha [10]: 0%
- pest or weed control at 62 g/ha ([10]; 62 g ai/ha): 0%
- pest or weed control at 125 g/ha ([10]; 125 g ai/ha): 0%
- pest or weed control at 250 g/ha ([10]; 250 g ai/ha): 0%
- pest or weed control at 500 g/ha ([10]; 500 g ai/ha): 0%
- Sandbur plant response rating ([10]; 62 g ai/ha): 0
- Sandbur plant response rating ([10]; 125 g ai/ha): 0
- Sandbur plant response rating ([10]; 250 g ai/ha): 0
- Sandbur plant response rating ([10]; 500 g ai/ha): 0

Structure (SMILES): CCCn1cc(C(=O)c2ccccc2)c(-c2cc(Cl)cc(Cl)c2)n1 [Compound 61, [3-(3,5-dichlorophenyl)-1-propyl-1H-pyrazol-4-yl]phenylmethanone]
- Plant response rating (0 to 100), Goosegrass ([4]; 31 g ai/ha): 0
- Plant response rating (0 to 100), Goosegrass ([4]; 62 g ai/ha): 0
- Plant response rating (0 to 100), Goosegrass ([4]; 125 g ai/ha): 0
- Plant response rating, Goosegrass ([4]; 250 g ai/ha): 5
- Plant response rating (0 to 100), Cocklebur ([5]; 31 g ai/ha): 10
- Plant response rating (0 to 100), Cocklebur ([5]; 62 g ai/ha): 10
- Plant response rating (0 to 100), Cocklebur ([5]; 125 g ai/ha): 20
- Plant response rating, Cocklebur ([5]; 250 g ai/ha): 35
- Plant response rating (0 to 100), Deadnettle ([6]; 31 g ai/ha): 0
- Plant response rating (0 to 100), Deadnettle ([6]; 62 g ai/ha): 0
- Plant response rating (0 to 100), Deadnettle ([6]; 125 g ai/ha): 0
- Plant response rating, Deadnettle ([6]; 250 g ai/ha): 0
- Plant response rating (0 to 100), Cupgrass, Woolly ([7]; 31 g ai/ha): 5
- Plant response rating (0 to 100), Cupgrass, Woolly ([7]; 62 g ai/ha): 10
- Plant response rating (0 to 100), Cupgrass, Woolly ([7]; 125 g ai/ha): 10
- Plant response rating, Cupgrass, Woolly ([7]; 250 g ai/ha): 15
- Plant response rating (0 to 100), Canarygrass ([8]; 31 g ai/ha): 0
- Plant response rating (0 to 100), Canarygrass ([8]; 62 g ai/ha): 0
- Plant response rating (0 to 100), Canarygrass ([8]; 125 g ai/ha): 0
- Plant response rating, Canarygrass ([8]; 250 g ai/ha): 0
- plant injury at 31 g/ha (soybean (Glycine max)): 0%
- plant injury at 62 g/ha (soybean (Glycine max); 62 g ai/ha): 0%
- plant injury at 125 g/ha (soybean (Glycine max); 125 g ai/ha): 0%
- plant injury at 250 g/ha (soybean (Glycine max); 250 g ai/ha): 0%
- plant injury at 500 g/ha (soybean (Glycine max); 500 g ai/ha): 10%
- pest or weed control at 31 g/ha [9, 11]: 0%
- pest or weed control at 62 g/ha [9, 12]: 0%
- pest or weed control at 125 g/ha [9, 13]: 0%
- pest or weed control at 250 g/ha [9, 14]: 10%
- pest or weed control at 500 g/ha [9, 15]: 20%
- pest or weed control at 31 g/ha [10]: 0%
- pest or weed control at 62 g/ha ([10]; 62 g ai/ha): 0%
- pest or weed control at 125 g/ha ([10]; 125 g ai/ha): 0%
- pest or weed control at 250 g/ha ([10]; 250 g ai/ha): 0%
- pest or weed control at 500 g/ha ([10]; 500 g ai/ha): 0%
